From the supplement of paper PMC10307832

How the values were obtained:
Experiment in all cases: relative viability (nuclei count vs DMSO), 5 days (fraction); higher = more cells survive
Everolimus + Pictilisib = compound: CO[C@H]1C[C@@H]2CC[C@@H](C)[C@@](O)(O2)C(=O)C(=O)N2CCCC[C@H]2C(=O)O[C@H]([C@H](C)C[C@@H]2CC[C@@H](OCCO)[C@H](OC)C2)CC(=O)[C@H](C)/C=C(\C)[C@@H](O)[C@@H](OC)C(=O)[C@H](C)C[C@H](C)/C=C/C=C/C=C/1C [Everolimus] + CS(=O)(=O)N1CCN(Cc2cc3nc(-c4cccc5[nH]ncc45)nc(N4CCOCC4)c3s2)CC1 [Pictilisib] (partner 1 µM)
Summary of the method: (§1)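 Relative viability is defined as nuclei in treated wells over nuclei in vehicle wells. Duplicate plates were run and medians reported. Lung cancer cell lines in 1536-well plates were dosed by pin tool one day after seeding, with one drug or with a fixed anchor-drug dose plus five library-drug doses (not always all listed) in √10 steps, and nuclei were counted after 5 days.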

Everolimus + Alpelisib = compound: CO[C@H]1C[C@@H]2CC[C@@H](C)[C@@](O)(O2)C(=O)C(=O)N2CCCC[C@H]2C(=O)O[C@H]([C@H](C)C[C@@H]2CC[C@@H](OCCO)[C@H](OC)C2)CC(=O)[C@H](C)/C=C(\C)[C@@H](O)[C@@H](OC)C(=O)[C@H](C)C[C@H](C)/C=C/C=C/C=C/1C [Everolimus] + Cc1nc(NC(=O)N2CCC[C@H]2C(N)=O)sc1-c1ccnc(C(C)(C)C(F)(F)F)c1 [Alpelisib] (partner 2 µM)
Summary of the method: as §1

Everolimus + Phenformin = compound: CO[C@H]1C[C@@H]2CC[C@@H](C)[C@@](O)(O2)C(=O)C(=O)N2CCCC[C@H]2C(=O)O[C@H]([C@H](C)C[C@@H]2CC[C@@H](OCCO)[C@H](OC)C2)CC(=O)[C@H](C)/C=C(\C)[C@@H](O)[C@@H](OC)C(=O)[C@H](C)C[C@H](C)/C=C/C=C/C=C/1C [Everolimus] + N=C(N)NC(=N)NCCc1ccccc1 [Phenformin] (partner 250 µM)
Summary of the method: as §1

Everolimus + AZD7762 = compound: CO[C@H]1C[C@@H]2CC[C@@H](C)[C@@](O)(O2)C(=O)C(=O)N2CCCC[C@H]2C(=O)O[C@H]([C@H](C)C[C@@H]2CC[C@@H](OCCO)[C@H](OC)C2)CC(=O)[C@H](C)/C=C(\C)[C@@H](O)[C@@H](OC)C(=O)[C@H](C)C[C@H](C)/C=C/C=C/C=C/1C [Everolimus] + NC(=O)Nc1cc(-c2cccc(F)c2)sc1C(=O)N[C@H]1CCCNC1 [AZD7762] (partner 0.2 µM)
Summary of the method: as §1

Row | Cell Line | relative viability (Everolimus + Pictilisib; first compound 0.01 µM) | relative viability (Everolimus + Pictilisib; first compound 0.03162 µM) | relative viability (Everolimus + Pictilisib; first compound 0.1 µM) | relative viability (Everolimus + Pictilisib; first compound 0.3162 µM) | relative viability (Everolimus + Pictilisib; first compound 1 µM) | relative viability (Everolimus + Alpelisib; first compound 0.01 µM) | relative viability (Everolimus + Alpelisib; first compound 0.03162 µM) | relative viability (Everolimus + Alpelisib; first compound 0.1 µM) | relative viability (Everolimus + Alpelisib; first compound 0.3162 µM) | relative viability (Everolimus + Alpelisib; first compound 1 µM) | relative viability (Everolimus + Phenformin; first compound 0.01 µM) | relative viability (Everolimus + Phenformin; first compound 0.03162 µM) | relative viability (Everolimus + Phenformin; first compound 0.1 µM) | relative viability (Everolimus + Phenformin; first compound 0.3162 µM) | relative viability (Everolimus + Phenformin; first compound 1 µM) | relative viability (Everolimus + AZD7762; first compound 0.01 µM) | relative viability (Everolimus + AZD7762; first compound 0.03162 µM) | relative viability (Everolimus + AZD7762; first compound 0.1 µM) | relative viability (Everolimus + AZD7762; first compound 0.3162 µM) | relative viability (Everolimus + AZD7762; first compound 1 µM)
1 | HCC-44 | 0.429 | 0.427 | 0.309 | 0.55 | 0.323 | 0.616 | 0.597 | 0.44 | 0.511 | 0.44 | 0.195 | 0.125 | 0.127 | 0.178 | 0.168 | 1.1 | 1.18 | 1.03 | 1.12 | 1.25
2 | HCC-78 | 0.193 | 0.19 | 0.201 | 0.185 | 0.16 | 0.244 | 0.244 | 0.213 | 0.234 | 0.228 | 0.504 | 0.462 | 0.451 | 0.564 | 0.626 | 0.455 | 0.427 | 0.361 | 0.553 | 0.384
3 | HCC-366 | 0.116 | 0.0953 | 0.131 | 0.11 | 0.138 | 0.334 | 0.231 | 0.251 | 0.25 | 0.267 | 0.59 | 0.613 | 0.601 | 0.528 | 0.582 | 0.371 | 0.245 | 0.334 | 0.29 | 0.209
4 | HCC-827 | 0.957 | 0.875 | 0.781 | 0.863 | 0.611 | 0.925 | 0.736 | 0.656 | 0.682 | 0.637 | 0.434 | 0.404 | 0.416 | 0.396 | 0.403 | 0.188 | 0.164 | 0.185 | 0.193 | 0.163
5 | HOP-62 | 0.326 | 0.274 | 0.17 | 0.267 | 0.352 | 0.683 | 0.551 | 0.517 | 0.518 | 0.429 | 0.583 | 0.579 | 0.495 | 0.513 | 0.535 | 0.289 | 0.346 | 0.412 | 0.402 | 0.37
6 | LC-2-ad | 0.456 | 0.372 | 0.386 | 0.282 | 0.283 | 0.752 | 0.885 | 0.754 | 0.737 | 0.818 | 0.54 | 0.502 | 0.54 | 0.516 | 0.491 | 0.802 | 0.85 | 0.775 | 0.79 | 0.83
7 | LCLC-97TM1 | 0.126 | 0.123 | 0.128 | 0.135 | 0.144 | 0.204 | 0.178 | 0.164 | 0.167 | 0.139 | 0.46 | 0.513 | 0.483 | 0.353 | 0.437 | 0.273 | 0.145 | 0.189 | 0.221 | 0.148
8 | LCLC-103H | 0.512 | 0.459 | 0.471 | 0.479 | 0.466 | 0.887 | 0.855 | 0.846 | 0.776 | 0.639 | 0.309 | 0.274 | 0.294 | 0.309 | 0.331 | 0.561 | 0.671 | 0.629 | 0.673 | 0.608
9 | LK-2 | 0.5 | – | 0.37 | 0.322 | 0.386 | 0.827 | – | 0.607 | 0.568 | 0.556 | 0.299 | – | 0.154 | 0.166 | 0.233 | 0.213 | 0.197 | 0.173 | 0.186 | 0.208
10 | LOU-NH91 | 0.516 | 0.484 | 0.462 | 0.485 | 0.465 | 0.64 | 0.551 | 0.543 | 0.564 | 0.52 | 0.636 | 0.596 | 0.609 | 0.541 | 0.584 | 0.651 | 0.654 | 0.621 | 0.645 | 0.647
11 | LU99A | 0.213 | 0.212 | 0.212 | 0.194 | 0.249 | 0.284 | 0.278 | 0.294 | 0.259 | 0.315 | 0.665 | 0.662 | 0.605 | 0.503 | 0.587 | 0.213 | 0.279 | 0.213 | 0.246 | 0.33
12 | LXF-289 | 0.579 | 0.624 | 0.513 | 0.555 | 0.509 | 0.993 | 0.967 | 0.901 | 0.973 | 0.868 | 0.526 | 0.541 | 0.507 | 0.574 | 0.512 | 1.18 | 1.28 | 1.17 | 1.12 | 1.24
13 | NCI-H23 | 0.334 | 0.268 | 0.216 | 0.312 | 0.344 | 0.355 | 0.326 | 0.285 | 0.281 | 0.309 | 0.641 | 0.607 | 0.508 | 0.593 | 0.496 | 0.144 | 0.185 | 0.218 | 0.219 | 0.175
